The numbers were not newly measured in patent publication US4496540A, “Therapeutic compounds” (Biomeasure, Inc., priority 1982, dated 1985), which cites them from elsewhere.

The test system of this data set is enkephalinase.

Consider `O=C(O)CNC(=O)C(CS)Cc1ccccc1` (racemic) [Thiorphan, (DL-3-mercapto-2-benzylpropanoyl) glycine], for which the “protection of the enkephalins from the action of enkephalinase in vitro” value (in vitro, Roques et al. (1980)) is “protects the enkephalins from the action of enkephalinase in vitro in nanomolar concentration”. Further, the inhibition of enkephalinase result (known inhibitors, Llorens et al. (1981)) is on record as “inhibited”.
